The target in data set [1] is KRAS (G12D)::SOS1 protein-protein interaction (Homo sapiens (Human), UniProt P01116, G12D). Briefly: KRAS::SOS1 AlphaScreen binding assay (KRAS G12D). Conditions: GDP. The text has this:
This assay can be used to examine the potency with which compounds according to the invention binding to (mutated) KRAS inhibit the protein-protein interaction between SOS1 and (mutated) KRAS e.g. KRAS G12C, KRAS G12D. […] Low IC50 values in this assay setting are indicative of strong inhibition of protein-protein interaction between SOS1 and KRAS:
These assays measure the inhibitory effect of compounds on KRAS mutant protein-protein interactions using the Alpha Screen technology by Perkin Elmer.
The following (mutant) enzyme forms of KRAS and interacting proteins are used in these assays at the given concentrations:
KRAS (G12D) 1-169, N-terminal 6His-tag, C-terminal avi-tag (Xtal BioStructures, Inc.); final assay concentration 10 nM and SOS1 564-1049, N-terminal 229 GST-tag, TEV cleavage site (Viva Biotech Ltd); final assay concentration 5 nM;
Test compounds dissolved in DMSO are dispensed onto assay plates (Proxiplate 384 PLUS, white, PerkinElmer; 6008289) using an Access Labcyte Workstation with the Labcyte Echo 55x. For the chosen highest assay concentration of 100 μM, 150 nL of compound solution are transferred from a 10 mM DMSO compound stock solution. A series of eleven fivefold dilutions per compound are transferred to the assay plate, compound dilutions are tested in duplicates. DMSO are added as backfill to a total volume of 150 nL.
The assays run on a fully automated robotic system in a darkened room below 100 Lux. To 150 nl of compound dilution 10 μl of a mix including KRAS mutant protein, SOS1 (final assay concentrations see above) and GDP nucleotide (Sigma G7127; final assay concentration 10 μM) in assay buffer (1×PBS, 0.1% BSA, 0.05% Tween 20) are added into columns 1-24.
After 30 minutes incubation time 5 μl of Alpha Screen bead mix in assay buffer are added into columns 1-23. Bead mix consists of AlphaLISA Glutathione Acceptor Beads (PerkinElmer, Cat No AL109) and AlphaScreen Streptavidin Donor Beads (PerkinElmer Cat No 6760002) in assay buffer at a final assay concentration of 10 μg/mL each.
Plates are kept at room temperature in a darkened incubator. After an additional 60 minutes incubation time the signal is measured in a PerkinElmer Envision HTS Multilabel Reader using the AlphaScreen specs from PerkinElmer.
Each plate contains up to 16 wells of a negative control depending on the dilution procedure (platewise or serial) (DMSO instead of test compound; with KRAS mutant::SOS1 GOP mix and bead mix; column 23) and 16 wells of a positive control (DMSO instead of test compound; with KRAS mutant::SOS1 GOP mix w/o bead mix; column 24).
As internal control known inhibitors of KRAS mutant::SOS1 interaction can be measured on each compound plate.
IC50 values are calculated and analyzed with Boehringer Ingelheim's MEGALAB C50 application using a 4 parametric logistic model.
Tables of example compounds disclosed herein contain IC50 values determined using the above assays (see Table 43).
In general terms: Bead proximity is the source of the signal in Alpha formats.

For the next data set, the system named is Ba/F3 cells KRAS G12D. Briefly: Ba/F3 proliferation assay (KRAS G12D). The data set is classed as cell-based. Conditions: Mus musculus, BaF3, 72 h, AlamarBlue viability. On the procedure: (§1) Ba/F3 cells are ordered from DSMZ (ACC300, Lot17) and grown in RPMI-1640 (ATCC 30-2001)+10% FCS+10 ng/mL IL-3 at 37° C. in 5% […] atmosphere. Plasmids containing KRASG12 mutants (i.e. […], G12C, G12V) are obtained from GeneScript. To generate KRASG12-dependent Ba/F3 models, Ba/F3 cells are transduced with retroviruses containing vectors that harbor KRASG12 isoforms. Platinum-E cells (Cell Biolabs) are used for retrovirus packaging. Retrovirus is added to Ba/F3 cells. To ensure infection, 4 μg/mL polybrene is added and cells are spinfected. Infection efficiency is confirmed by measuring GFP-positive cells using a cell analyzer. Cells with an infection efficiency of 10% to 20% are further cultivated and puromycin selection with 1 μg/mL is initiated. As a control, parental Ba/F3 cells are used to show selection status. Selection is considered successful when parental Ba/F3 cells cultures died. To evaluate the transforming potential of KRASG12 mutations, the growth medium is no longer supplemented with IL-3. Ba/F3 cells harboring the empty vector are used as a control. Approximately ten days before conducting the experiments, puromycin is left out.
(§2) For proliferation assays, Ba/F3 cells are seeded into 384-well plates at 1.5×1 (M cells/60 μL in growth media (RPMI-1640+10% FCS). Compounds (10 mM stock in DMSO) are added at logarithmic dose series using the ECHO acoustic liquid handler system (Beckman Coulter), normalizing for added DMSO and including DMSO controls. All compound treatments are performed in technical duplicates. For the TO time point measurement, untreated cells are analyzed at the time of compound addition. Treated cells are incubated for 72 h at 37° C. with 5% CO2 and cell viability is measured in the PerkinElmer Envision Multimode Reader using AlamarBlue™ (ThermoFisher) viability stain. Viability (stated as percent of control) is defined as relative fluorescence units RFU of each well divided by the RFU of cells in DMSO controls. IC50 values are determined from viability measurements by non-linear regression using a four-parameter model.
In general terms: Alamar Blue is a resazurin reagent that responds to reducing activity.

The subject of another data set is Ba/F3 cells KRAS G12C. Briefly: Ba/F3 proliferation assay (KRAS G12C). The data set is classed as cell-based. Conditions: Mus musculus, BaF3, 72 h, AlamarBlue viability. On the procedure: as §1, §2
A further data set relates to Ba/F3 cells KRAS G12V. Kind of data set: Ba/F3 proliferation assay (KRAS G12V). In kind it is cell-based. Particulars: Mus musculus, BaF3, 72 h, AlamarBlue viability. On the procedure:
as §1, §2

A short description of data set [2]: Metabolic (microsomal) stability assay, human liver microsomes (HLM). Particulars: 1 μM test compound, predicted clearance as percent of liver blood flow. The data set is classed as in vitro ADME. On the procedure: The metabolic degradation of the test compound is assayed at 37° C. with pooled liver microsomes (mouse (MLM), rat (RLM) or human (HLM)). The final incubation volume of 48 μL per time point contains TRIS buffer (pH 7.5; 0.1 M), magnesium chloride (6.5 mM), microsomal protein (0.5 mg/mL for mouse/rat, 1 mg/mL for human specimens) and the test compound at a final concentration of 1 μM. Following a short preincubation period at 37° C., the reactions are initiated by addition of 12 μL beta-nicotinamide adenine dinucleotide phosphate, reduced form (NADPH, 10 mM) and terminated by transferring an aliquot into solvent after different time points (0, 5, 15, 30, 60 min). Additionally, the NADPH-independent degradation is monitored in incubations without NADPH, terminated at the last time point by addition of acetonitrile. The quenched incubations are pelleted by centrifugation (4,000 rpm, 15 min). An aliquot of the supernatant is assayed by LC-MS/MS to quantify the concentration of parent compound in the individual samples.
In vitro intrinsic clearance (CLint,in vitro) is calculated from the time course of the disappearance of the test drug during the microsomal incubation. Each plot is fitted to the first-order elimination rate constant as C(t)=C0*exp(−ke*t), where C(t) and C0 are the concentration of unchanged test drug at incubation time t and that at preincubation and ke is the disappearance rate constant of the unchanged drug. Subsequently, CLint, in vitro (μL min^−1·amount protein) values are converted to predicted CLint,in vivo (mL min^−1·kg^−1) from incubation parameters according to the equation CLint, in vivo=CLint, in vitro×(incubation volume (mL)/amount protein (mg))×(amount protein (mg)/g liver tissue)×(liver weight/body wt.).
For better across species comparison the predicted clearance is expressed as percent of the liver blood flow [% QH] (mL min^−1·kg^−1) in the individual species. In general, high stability (corresponding to low % QH) of the compounds across species is desired.

The nature of data set [3]: Solubility measurement (DMSO solution precipitation method). In kind it is physicochemical. Particulars: aqueous buffer, kinetic from dmso stock. On the procedure: A 10 mM DMSO stock solution of a test compound is used to determine its aq. solubility. The DMSO solution is diluted with an aq. medium (McIlvaine buffer with pH=4.5 or 6.8) to a final concentration of 250 μM. After 24 h of shaking at ambient temperature a potentially formed precipitate is removed by filtration. The concentration of the test compound in the filtrate is determined by LC-UV methods by calibrating the signal to the signal of a reference solution with complete dissolution of the test compound in acetonitrile/water (1:1) with known concentration.

Setting [4] is: McIlvaine buffer pH 4.5, 24 h, read-out: solubility pH 4.5.
Where [5] appears, read: McIlvaine buffer pH 6.8, 24 h, read-out: solubility pH 6.8.

Values after ≈ are worked out from the molar mass of the structure shown. Like-named read-outs stand apart in the source and are kept apart here.

The text below walks through data of US20250019385A1, “SPIROCYCLIC ANNULATED 2-AMINO-3-CYANO THIOPHENES AND DERIVATIVES FOR THE TREATMENT OF CANCER” (Boehringer Ingelheim International GmbH, priority 2023, published 2025).

Sequence of KRAS (G12D)::SOS1 protein-protein interaction (P01116 other isoform, or with tags, fused parts or gaps G12D): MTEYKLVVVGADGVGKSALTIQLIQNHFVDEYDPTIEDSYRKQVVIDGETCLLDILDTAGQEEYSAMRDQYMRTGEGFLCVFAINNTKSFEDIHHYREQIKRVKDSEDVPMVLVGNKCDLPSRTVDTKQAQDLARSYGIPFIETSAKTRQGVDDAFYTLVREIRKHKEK

As for `CO[C@H]1CCN(C)[C@@H]1[C@H](C)Oc1nc(-c2onc3c2CCC[C@@]32CCCc3sc(N)c(C#N)c32)nc2c1n(C)c(=O)n2[C@H]1CO[C@@H](C)C1` [I-48], the IC50 in data set [1] came to 2 nM; in the data set on Ba/F3 cells KRAS G12D, 3 nM; in the data set on Ba/F3 cells KRAS G12C, 2 nM; with Ba/F3 cells KRAS G12V it was 1 nM. For the same molecule, the “HLM QH” value in data set [2] was 63%. Besides, the solubility at 24 h is > 148 µg/mL in data set [3] (setting [4]) and 53 µg/mL (≈ 78.5 µM) in data set [3] (setting [5]).

Take `CO[C@@H]1C[C@@H]([C@H](C)Oc2nc(-c3onc4c3CCC[C@@]43CCCc4sc(N)c(C#N)c43)nc3c2n(C)c(=O)n3[C@H]2CO[C@@H](C)C2)N(C)C1` [I-49]: the “HLM QH” value in data set [2] is 35%. For the same molecule, the solubility at 24 h in data set [3] (setting [4]) is > 145 µg/mL; in data set [3] (setting [5]) it was 56 µg/mL (≈ 83 µM).

`C[C@@H]1COC[C@H](n2c(=O)n(C)c3c(O[C@@H](C)[C@@H]4CC[C@H](C)N4C)nc(-c4onc5c4CCC[C@@]54CCCc5sc(N)c(C#N)c54)nc32)C1` [I-53]: the IC50 in data set [1] was 1 nM; in the data set with Ba/F3 cells KRAS G12D, 19 nM; in the data set with Ba/F3 cells KRAS G12C, 6 nM; with Ba/F3 cells KRAS G12V, 2 nM. Besides, in data set [2], the “HLM QH” value is 45%. Also, the results for the solubility at 24 h in data set [3] (setting [4]) and in data set [3] (setting [5]) were > 153 µg/mL and 19 µg/mL (≈ 28.2 µM), respectively.

Usually IC50 stands for the concentration that inhibits the measured activity by half. A lower IC50 goes with greater potency in that assay. As usually defined, the solubility is the concentration that dissolves in the medium under given conditions.
